# Patent US11638425B2, “Agent for inducing stress tolerance in plants” (Menicon Co. Ltd., priority 2017, dated 2023)
# Tested on: HSP17.6C-C1 of Arabidopsis thaliana
# Experiment: HSP expression test (HSP17.6C-C1 upstream region linked to GUS, 4-MU production)
# Type: in vivo
# Design: key: 4-MU per plant divided by 4-MU of 50 μM geldanamycin positive control
# Settings: soaked 6 hours at 22° C., positive control 50 μM geldanamycin
# Experimental: First, a construct linked to β-glucuronidase (GUS) gene was introduced to 1 kb upstream of HSP17.6C-C1 of Arabidopsis thaliana (the family Brassicaceae) to prepare a mutant. Each naphthoquinone compound (shown in Table 1) dissolved in DMSO was diluted to 1 μM, 10 μM, 100 μM, or 1000 μM (final concentration) with deionized water to prepare a test solution of each example (final concentration of DMSO: 1.0% by volume). A 50 μM geldanamycin solution was similarly prepared as a positive control.
# Next, two individuals of 7-day-old Arabidopsis thaliana mutants grown in a ⅕ MS medium were soaked in 300 μL of the test solution of each example or the positive control at 22° C. for 6 hours. The Arabidopsis thaliana was washed with deionized water, then soaked in 200 μL of a 4-methylumbelliferyl-β-D-glucuronide hydrate solution containing a surfactant, and incubated at 22° C. for 16 hours in the dark. The fluorescence intensity of the supernatant was measured, and the amount of 4-methylumbelliferone (4-MU) production per plant was calculated. The calculated value of 4-MU was divided by the value of 4-MU of the positive control to calculate a ratio vs. positive control. A higher numerical value means that HSP was expressed at a larger level.
# Each shikonin compound or alkannin compound (shown in Table 2) dissolved in DMSO was diluted to 1 μM, 10 μM, 100 μM, or 1000 μM (final concentration) with deionized water to prepare a test solution of each example (final concentration of DMSO: 1.0% by volume). A 50 μM geldanamycin solution was similarly prepared as a positive control. The other test procedures were performed in the same way as in Test Example 1. The calculated value of 4-MU was divided by the value of 4-MU of the positive control to calculate a ratio vs. positive control. […]
SMILES,Ratio of 4-MU amount vs. positive control (1 μM),Ratio of 4-MU amount vs. positive control (10 μM),Ratio of 4-MU amount vs. positive control (100 μM),Ratio of 4-MU amount vs. positive control (1000 μM)
"CC1=CC(=O)c2c(O)cccc2C1=O [Example 4, 5-Hydroxy-2-methyl-1,4-naphthoquinone]",0.13,1.0,0.18,0.06
"O=C1C=C(O)C(=O)c2ccccc21 [Example 2, 2-Hydroxy-1,4-naphthoquinone]",0.14,0.15,0.47,0.04
"COC1=CC(=O)c2ccccc2C1=O [Example 11, 2-Methoxy-1,4-naphthoquinone]",0.06,0.04,0.21,0.11
"O=C1C=CC(=O)c2ccccc21 [Example 1, 1,4-Naphthoquinone]",0.13,0.76,0.27,0.03
"O=C1C(Cl)=C(Cl)C(=O)c2cc([N+](=O)[O-])ccc21 [Example 9, 2,3-Dichloro-6-nitro-1,4-naphthoquinone]",0.17,0.91,0.66,0.48
"CC(C)=CCC(OC(=O)C=C(C)C)C1=CC(=O)c2c(O)ccc(O)c2C1=O (stereo not drawn) [Example 19, β,β-Dimethylacrylshikonin]",0.02,0.95,1.35,2.28
"O=C1C=CC(=O)c2c(O)cccc21 [Example 3, 5-Hydroxy-1,4-naphthoquinone]",0.17,0.14,0.59,0.46
"NC1=C(Cl)C(=O)c2ccccc2C1=O [Example 12, 2-Amino-3-chloro-1,4-naphthoquinone]",0.06,0.15,0.19,0.14
"CCC(C)C(=O)O[C@H](CC=C(C)C)C1=CC(=O)c2c(O)ccc(O)c2C1=O (stereo partly drawn) [Example 18, α-Methyl-n-butylshikonin]",0.02,1.00,1.40,2.76
"CC1=CC(=O)c2ccccc2C1=O [Example 10, 2-Methyl-1,4-naphthoquinone]",0.04,0.05,0.09,0.08
"CC(C)=CC[C@H](O)C1=CC(=O)c2c(O)ccc(O)c2C1=O [Example 20, Alkannin]",0.04,0.11,0.62,1.13
"CC(C)=CCC(OC(=O)CC(C)C)C1=CC(=O)c2c(O)ccc(O)c2C1=O (stereo not shown) [Example 16, Isovalerylshikonin]",0.04,0.93,0.85,0.76
"O=C1C(Cl)=C(Cl)C(=O)c2c1cccc2[N+](=O)[O-] [Example 8, 2,3-Dichloro-5-nitro-1,4-naphthoquinone]",0.15,1.00,0.38,0.46
